# Results as given in patent US9884868B2, “TGF-beta inhibitors” (Rigel Pharmaceuticals, Inc., priority 2015, dated 2018).
# Target: HIS-TGF-βR1 T204D (Homo sapiens (Human), UniProt P36897, T204D)
# Assay: HTRF probe displacement assay with HIS-TGF-βR1 T204D
# Conditions: read-out: TGFbr1 IC50; HTRF probe displacement, 1 nM HIS-TGF-βR1 T204D, 1 hour at room temperature
# HIS-TGF-βR1 T204D, sequence (P36897 34-503 T204D): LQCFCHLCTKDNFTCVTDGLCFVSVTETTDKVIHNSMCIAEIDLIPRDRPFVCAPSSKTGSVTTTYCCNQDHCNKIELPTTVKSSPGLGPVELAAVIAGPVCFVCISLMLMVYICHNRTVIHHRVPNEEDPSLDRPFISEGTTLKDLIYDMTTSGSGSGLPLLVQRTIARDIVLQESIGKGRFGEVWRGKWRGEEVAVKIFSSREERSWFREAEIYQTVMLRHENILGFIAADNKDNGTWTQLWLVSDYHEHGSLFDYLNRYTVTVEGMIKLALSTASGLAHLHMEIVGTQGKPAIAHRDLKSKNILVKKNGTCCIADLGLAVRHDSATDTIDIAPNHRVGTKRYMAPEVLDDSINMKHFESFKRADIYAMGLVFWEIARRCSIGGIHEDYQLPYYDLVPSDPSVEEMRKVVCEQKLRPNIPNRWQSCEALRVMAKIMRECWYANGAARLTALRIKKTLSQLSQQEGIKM
row,SMILES,IC50 [nM]
1,"NC(=O)c1cnc2ccc(-c3c(-c4ccc(F)cc4)ncn3C3CNC3)nn12 [195B′, 6-(1-(azetidin-3-yl)-4-(4-fluorophenyl)-1H-imidazol-5-yl)imidazo[1,2-b]pyridazine-3-carboxamide]",45.4
2,"CC(C)n1cnc(-c2ccc(F)cc2)c1-c1ccc2ncc(C(N)=O)n2c1 [170′, 6-(4-(4-fluorophenyl)-1-isopropyl-1H-imidazol-5-yl)imidazo[1,2-a]pyridine-3-carboxamide]",0.5
3,"NC(=O)c1cnc2ccc(-c3c(-c4ccc(F)c(Cl)c4)ncn3CCO)nn12 [138′, 6-(4-(3-chloro-4-fluorophenyl)-1-(2-hydroxyethyl)-1H-imidazol-5-yl)imidazo[1,2-b]pyridazine-3-carboxamide]",0.7
4,"NC(=O)c1cnc2ccc(-c3c(-c4ccc(F)cc4)ncn3C34CC(C3)C4)nn12 [136′, 6-(1-(bicyclo[1.1.1]pentan-1-yl)-4-(4-fluorophenyl)-1H-imidazol-5-yl)imidazo[1,2-b]pyridazine-3-carboxamide]",12.4
5,"N#Cc1cnc2ccc(-c3c(-c4cc(Cl)ccc4F)ncn3CC(F)F)cn12 [228′, 6-(4-(5-chloro-2-fluorophenyl)-1-(2,2-difluoroethyl)-1H-imidazol-5-yl)imidazo[1,2-a]pyridine-3-carbonitrile]",3.7
6,"CC(C1CC1)n1cnc(-c2ccc(F)cc2)c1-c1ccc2ncc(C#N)n2c1 (stereo not drawn) [88′, 6-(1-(1-cyclopropylethyl)-4-(4-fluorophenyl)-1H-imidazol-5-yl)imidazo[1,2-a]pyridine-3-carbonitrile]",19.3
7,"Fc1ccc(-c2ncn(CC(F)F)c2-c2ccc3ncc(C4CC4)n3c2)cc1 [Example 285′, 3-cyclopropyl-6-(1-(2,2-difluoroethyl)-4-(4-fluorophenyl)-1H-imidazol-5-yl)imidazo[1,2-a]pyridine]",38.8
8,"NC(=O)c1cnc2ccc(-c3c(-c4ccc(F)cc4)nc4n3CCC4)cn12 [Example 283′, 6-(2-(4-fluorophenyl)-6,7-dihydro-5H-pyrrolo[1,2-a]imidazol-3-yl)imidazo[1,2-a]pyridine-3-carboxamide]",0.9
9,"NC(=O)c1cnc2ccc(-c3c(-c4ccc(F)cc4F)ncn3CC(F)F)cn12 [233′, 6-(1-(2,2-difluoroethyl)-4-(2,4-difluorophenyl)-1H-imidazol-5-yl)imidazo[1,2-a]pyridine-3-carboxamide]",1
10,"C[C@H](O)Cn1cnc(-c2ccc(F)cc2)c1-c1ccc2ncc(C(N)=O)n2c1 [158′, (S)-6-(4-(4-fluorophenyl)-1-(2-hydroxypropyl)-1H-imidazol-5-yl)imidazo[1,2-a]pyridine-3-carboxamide]",2.7
11,"CC1(n2cnc(-c3ccc(F)c(Cl)c3)c2-c2ccc3ncc(C#N)n3n2)COC1 [43′, 6-(4-(3-chloro-4-fluorophenyl)-1-(3-methyloxetan-3-yl)-1H-imidazol-5-yl)imidazo[1,2-b]pyridazine-3-carbonitrile]",2.7
12,"NC(=O)c1cnc2ccc(-c3c(-c4ccc(F)cc4)ncn3C(CO)CO)nn12 [129′, 6-(1-(1,3-dihydroxypropan-2-yl)-4-(4-fluorophenyl)-1H-imidazol-5-yl)imidazo[1,2-b]pyridazine-3-carboxamide]",5.1
13,"CCn1cnc(-c2ccc(F)cc2)c1-c1ccc2ncc(C#N)n2n1 [10′, 6-(1-ethyl-4-(4-fluorophenyl)-1H-imidazol-5-yl)imidazo[1,2-b]pyridazine-3-carbonitrile]",2.5
14,"N#Cc1cnc2ccc(-c3c(-c4ccc(F)cc4)ncn3C3COC3)nn12 [13′, 6-(4-(4-fluorophenyl)-1-(oxetan-3-yl)-1H-imidazol-5-yl)imidazo[1,2-b]pyridazine-3-carbonitrile]",17
15,"N#Cc1cnc2ccc(-c3c(-c4cccc(CO)c4)ncn3CC(F)F)nn12 [256′, 6-(1-(2,2-difluoroethyl)-4-(3-(hydroxymethyl)phenyl)-1H-imidazol-5-yl)imidazo[1,2-b]pyridazine-3-carbonitrile]",5
16,N#Cc1cnc2ccc(-c3c(-c4ccc(F)cc4)ncn3[C@H]3C[C@@H](O)C3)nn12 [Example 2′],2.3
17,"NCc1cnc2ccc(-c3c(-c4ccc(F)cc4)ncn3CC(F)F)nn12 [196A′, (6-(1-(2,2-difluoroethyl)-4-(4-fluorophenyl)-1H-imidazol-5-yl)imidazo[1,2-b]pyridazin-3-yl)methanamine]",20.1
18,"N#Cc1cnc2ccc(-c3c(-c4ccc(F)cc4)ncn3C3CNC3)nn12 [190C′, 6-(1-(azetidin-3-yl)-4-(4-fluorophenyl)-1H-imidazol-5-yl)imidazo[1,2-b]pyridazin-3-carbonitrile]",86.2
19,"Fc1ccc(-c2ncn(CC(F)F)c2-c2ccc3nncn3c2)cc1 [Example 281′, 6-(1-(2,2-difluoroethyl)-4-(4-fluorophenyl)-1H-imidazol-5-yl)-[1,2,4]triazolo[4,3-a]pyridine]",522

# More lines, now with the values ahead:
row,IC50 [nM],SMILES
1,9.9,"Fc1ccc(-c2ncn(CC(F)F)c2-c2ccc3nccn3c2)cc1Cl [219′, 6-(4-(3-chloro-4-fluorophenyl)-1-(2,2-difluoroethyl)-1H-imidazol-5-yl)imidazo[1,2-a]pyridine]"
2,0.6,"N#Cc1cnc2ccc(-c3c(-c4ccc(F)c(Cl)c4)ncn3CCC3CCC3)nn12 [40′, 6-(4-(3-chloro-4-fluorophenyl)-1-(2-cyclobutylethyl)-1H-imidazol-5-yl)imidazo[1,2-b]pyridazine-3-carbonitrile]"
3,11.6,"N#Cc1cnc2ccc(-c3c(-c4ccc(F)c(Cl)c4)ncn3CCO)cn12 [100′, 6-(4-(3-chloro-4-fluorophenyl)-1-(2-hydroxyethyl)-1H-imidazol-5-yl)imidazo[1,2-a]pyridine-3-carbonitrile]"
4,0.9,"N#Cc1cnc2ccc(-c3c(-c4ccc(F)c(Cl)c4)ncn3[C@@H]3CCC(F)(F)C3)nn12 [63′, (R)-6-(4-(3-chloro-4-fluorophenyl)-1-(3,3-difluorocyclopentyl)-1H-imidazol-5-yl)imidazo[1,2-b]pyridazine-3-carbonitrile]"
5,2.9,"N#Cc1cnc2ccc(-c3c(-c4ccccc4)ncn3CC(F)F)nn12 [237′, 6-(1-(2,2-difluoroethyl)-4-phenyl-1H-imidazol-5-yl)imidazo[1,2-b]pyridazine-3-carbonitrile]"
6,5,"CC[C@@H](CO)n1cnc(-c2ccc(F)cc2)c1-c1ccc2ncc(C#N)n2n1 [Example 6′, (S)-6-(4-(4-fluorophenyl)-1-(1-hydroxybutan-2-yl)-1H-imidazol-5-yl)imidazo[1,2-b]pyridazine-3-carbonitrile]"
7,0.6,"N#Cc1cnc2ccc(-c3c(-c4ccc(F)cc4)ncn3C3CC(CO)C3)nn12 (stereo not drawn) [27′, 6-(4-(4-fluorophenyl)-1-(3-(hydroxymethyl)cyclobutyl)-1H-imidazol-5-yl)imidazo[1,2-b]pyridazine-3-carbonitrile]"
8,8.4,"NC(=O)c1cnc2ccc(-c3c(-c4ccc(F)cc4)ncn3C(CO)CO)cn12 [171′, 6-(1-(1,3-dihydroxypropan-2-yl)-4-(4-fluorophenyl)-1H-imidazol-5-yl)imidazo[1,2-a]pyridine-3-carboxamide]"
9,2.1,"CC(C)(O)CCn1cnc(-c2ccc(F)cc2)c1-c1ccc2ncc(C#N)n2n1 [12′, 6-(4-(4-fluorophenyl)-1-(3-hydroxy-3-methylbutyl)-1H-imidazol-5-yl)imidazo[1,2-b]pyridazine-3-carbonitrile]"
10,55,"CC(=O)Nc1nc(-c2ccc(F)cc2)c(-c2ccc3nccn3c2)[nH]1 [Example 295′, N-(4-(4-fluorophenyl)-5-(imidazo[1,2-a]pyridin-6-yl)-1H-imidazol-2-yl)acetamide]"
11,6.6,"NC(=O)c1cnc2ccc(-c3c(-c4ccc(F)cc4)ncn3C3COC3)cn12 [173′, 6-(4-(4-fluorophenyl)-1-(oxetan-3-yl)-1H-imidazol-5-yl)imidazo[1,2-a]pyridine-3-carboxamide]"
12,1.9,"N#Cc1cnc2ccc(-c3c(-c4ccc(F)cc4)ncn3CCF)nn12 [9′, 6-(1-(2-fluoroethyl)-4-(4-fluorophenyl)-1H-imidazol-5-yl)imidazo[1,2-b]pyridazine-3-carbonitrile]"
13,1.2,"Nc1cnc2ccc(-c3c(-c4ccc(F)cc4)ncn3CC(F)F)cn12 [284D′, 6-(1-(2,2-difluoroethyl)-4-(4-fluorophenyl)-1H-imidazol-5-yl)imidazo[1,2-a]pyridin-3-amine]"
14,136,"N#Cc1cnc2ccc(-c3c(-c4ccc(O)cc4)ncn3CC(F)F)nn12 [250′, 6-(1-(2,2-difluoroethyl)-4-(4-hydroxyphenyl)-1H-imidazol-5-yl)imidazo[1,2-b]pyridazine-3-carbonitrile]"
15,2.9,"Fc1ccc(Cl)cc1-c1ncn(CC(F)F)c1-c1ccc2nccn2c1 [222′, 6-(4-(5-chloro-2-fluorophenyl)-1-(2,2-difluoroethyl)-1H-imidazol-5-yl)imidazo[1,2-a]pyridine]"
16,3,"CC(C)OCCn1cnc(-c2ccc(F)cc2)c1-c1ccc2ncc(C#N)n2n1 [11′, 6-(4-(4-fluorophenyl)-1-(2-isopropoxyethyl)-1H-imidazol-5-yl)imidazo[1,2-b]pyridazine-3-carbonitrile]"
17,1.2,"NC(=O)c1cnc2ccc(-c3c(-c4ccc(F)c(Cl)c4)ncn3CCC3CCC3)nn12 [150′, 6-(4-(3-chloro-4-fluorophenyl)-1-(2-cyclobutylethyl)-1H-imidazol-5-yl)imidazo[1,2-b]pyridazine-3-carboxamide]"
18,1.6,"Fc1ccc(-c2ncn(C3(C(F)F)CC3)c2-c2ccc3nccn3n2)cc1 [Example 189′, 6-(1-(1-(difluoromethyl)cyclopropyl)-4-(4-fluorophenyl)-1H-imidazol-5-yl)imidazo[1,2-b]pyridazine]"
19,0.9,"NC(=O)c1cnc2ccc(-c3c(-c4ccc(F)c(Cl)c4)ncn3CC(F)F)nn12 [113′, 6-(4-(3-chloro-4-fluorophenyl)-1-(2,2-difluoroethyl)-1H-imidazol-5-yl)imidazo[1,2-b]pyridazine-3-carboxamide]"
20,62.7,"Fc1ccc(-c2ncn(CC(F)F)c2-c2ccc3nccn3c2)cc1 [Example 218′, 6-(1-(2,2-difluoroethyl)-4-(4-fluorophenyl)-1H-imidazol-5-yl)imidazo[1,2-a]pyridine]"
